# Measured values as given in ChEMBL document CHEMBL4138277, “Lipovelutibols A-D: Cytotoxic Lipopeptaibols from the Himalayan Cold Habitat Fungus Trichoderma velutinum” (J Nat Prod, 2018).
# pIC50: −log10 of the molar value. Non-standard residues stand in square brackets, D forms with d. Residues, ends and D or L forms follow the SMILES beside them. *: point of attachment. Leu(ol) = CC(C)C[C@H](N)CO; dIva = CC[C@@](C)(N)C(=O)O; Octanoyl = CCCCCCCC(=O)*; Aib = CC(C)(N)C(=O)O
# Assays:
# Type in all cases: functional, cell-based
# HL-60 = assay: Cytotoxicity against human HL60 cells after 48 hrs by MTT assay; settings: HL-60, 48 h
# LS180 = assay: Cytotoxicity against human LS180 cells after 48 hrs by MTT assay; settings: LS180, 48 h
# MDA-MB-231 = assay: Cytotoxicity against human MDA-MB-231 cells after 48 hrs by MTT assay; settings: MDA-MB-231, 48 h
# A549 = assay: Cytotoxicity against human A549 cells after 48 hrs by MTT assay; settings: A549, 48 h
SMILES,pIC50 (HL-60),pIC50 (LS180),pIC50 (MDA-MB-231),pIC50 (A549)
CCCCCCCC(=O)NCC(=O)N[C@@H](C)C(=O)N[C@@H](CC(C)C)C(=O)N[C@](C)(CC)C(=O)N[C@@H](C)C(=O)N[C@H](C(=O)N[C@H](CO)CC(C)C)[C@@H](C)CC (Octanoyl-GAL[dIva]AI[Leu(ol)]),5.40,5.15,5.30,5.40
CCCCCCCC(=O)NCC(=O)N[C@@H](C)C(=O)N[C@@H](CC(C)C)C(=O)NC(C)(C)C(=O)N[C@@H](C)C(=O)N[C@H](C(=O)N[C@H](CO)CC(C)C)[C@@H](C)CC (Octanoyl-GAL[Aib]AI[Leu(ol)]),4.80,< 4.52,4.80,4.77
CC(=O)O[C@H]1C(=O)[C@@]2(C)[C@H]([C@H](OC(=O)c3ccccc3)[C@]3(O)C[C@H](OC(=O)[C@H](O)[C@@H](NC(=O)c4ccccc4)c4ccccc4)C(C)=C1C3(C)C)[C@]1(OC(C)=O)CO[C@@H]1C[C@@H]2O [PACLITAXEL],,8.55,,
CCCCCCCC(=O)NCC(=O)N[C@@H](C)C(=O)N[C@@H](CC(C)C)C(=O)NC(C)(C)C(=O)N[C@@H](CO)C(=O)N[C@H](C(=O)N[C@H](CO)CC(C)C)[C@@H](C)CC (Octanoyl-GAL[Aib]SI[Leu(ol)]),< 4.52,< 4.52,< 4.52,4.52
CCCCCCCC(=O)NCC(=O)N[C@@H](C)C(=O)N[C@@H](CC(C)C)C(=O)N[C@](C)(CC)C(=O)N[C@@H](CO)C(=O)N[C@H](C(=O)N[C@H](CO)CC(C)C)[C@@H](C)CC,5.70,< 4.52,5.40,4.52
